One test deals with Hs-578T. Kind of test: Growth inhibition of HS578T cells. It is filed as functional. Conditions: Homo sapiens.
Test [1] is described as follows: Growth inhibition of NCI60 cells after 48 hrs. It is filed as functional. Conditions: Homo sapiens, NCI60, 48 h.
Another test deals with RPMI. Kind of test: Inhibition of DNA synthesis in human RPMI cells by [3H]-thymidine incorporation assay. It is filed as functional, cell-based.
A further test has as its system U-251. Description: Growth inhibition of U251 cells. It is filed as functional. Conditions: Homo sapiens.
The test system of a further test is SNB-75. Description: Growth inhibition of SNB75 cells. It is filed as functional. Conditions: Homo sapiens.

SMILES strings stand for the structures. Some results are limits rather than exact numbers.

What is called GI50 is the concentration that inhibits growth by half. In general, IC50 refers to the point on the concentration scale where inhibition reaches its midpoint. Low readings indicate greater potency in that assay, high ones weaker potency in that assay. Regarding `COc1cc(/C=C/c2cc(O)c(CC=C(C)C)c(O)c2)cc2c1O[C@@]1(C)CC[C@H](O)C(C)(C)[C@@H]1C2` (single isomer, unassigned), the concentration for 50% growth inhibition (GI50) in the test with Hs-578T was under 0.01 µM; in test [1] it was 0.13 µM; with U-251, under 0.01 µM; in the test on SNB-75, 1.7 µM. Besides, in the test with RPMI, the IC50 amounted to 3.4 µM.

With `COc1cc(/C=C/c2cc(O)c(C/C=C(\C)CCC=C(C)C)c(O)c2)cc2c1O[C@@]1(C)CC[C@H](O)C(C)(C)[C@@H]1C2` (single isomer, unassigned), it took 2.2 µM to inhibit growth in test [1] by half (GI50). Further, the IC50 in the test with RPMI was 4.5 µM.

`COc1cc(/C=C/c2cc(O)c(C/C=C(\C)CCC=C(C)C)c(O)c2)cc2c1O[C@]1(C)CC[C@@H](O)C(C)(C)[C@H]1C2` (single isomer, unassigned) [3-DEOXYSCHWEINFURTHIN B]: it took 0.87 µM to inhibit growth in test [1] by half (GI50). The IC50 in the test with RPMI is 0.21 µM.

As to `COc1cc(/C=C/c2cc(O)c(CC=C(C)C)c(O)c2)cc2c1O[C@]1(C)CC[C@@H](O)C(C)(C)[C@H]1C2` (single isomer, unassigned) [SCHWEINFURTHIN F], the 50% growth inhibitory concentration (GI50) with Hs-578T was under 0.01 µM; in test [1], 0.41 µM; in the test with U-251, 13 µM; with SNB-75, 0.01 µM. For the same molecule, the IC50 in the test with RPMI is 0.58 µM.

Molecule `CC(C)=CCc1c(O)cc(/C=C/c2cc(O)c3c(c2)C[C@@H]2C(C)(C)[C@H](O)[C@H](O)C[C@@]2(C)O3)cc1O` [VEDELIANIN] gave a GI50 in test [1] of 0.08 µM.

In test [1], `COc1cc(/C=C/c2cc3c(c(OC)c2)O[C@@]2(C)CC[C@H](O)C(C)(C)[C@@H]2C3)cc(O)c1CC=C(C)C` came in with a GI50 of 4.6 µM.

`CC(C)=CCC/C(C)=C/Cc1c(O)cc(/C=C/c2cc(O)c3c(c2)C[C@@H]2C(C)(C)[C@H](O)[C@H](O)C[C@@]2(C)O3)cc1O` [SCHWEINFURTHIN A]: it took 0.36 µM to inhibit growth in test [1] by half (GI50).

The molecule `COc1cc(/C=C/c2cc3c(c(OC)c2)O[C@]2(C)CC[C@@H](O)C(C)(C)[C@H]2C3)cc(O)c1CC=C(C)C` came in with a GI50 in test [1] of 0.87 µM.

The molecule `COc1cc(/C=C/c2cc(O)c(C/C=C(\C)CCC=C(C)C)c(O)c2)cc2c1O[C@]1(C)C[C@@H](O)[C@@H](O)C(C)(C)[C@H]1C2` [SCHWEINFURTHIN B] yielded a GI50 in test [1] of 0.81 µM.

(Values after ChEMBL document CHEMBL1146372, “Total synthesis of (R,R,R)- and (S,S,S)-schweinfurthin F: differences of bioactivity in the enantiomeric series” (Bioorg Med Chem Lett, 2007).)
